Laboratory results as given in article PMC7069095, “A cell-permeable peptide-based PROTAC against the oncoprotein CREPT proficiently inhibits pancreatic cancer” (Theranostics, 2020).
Values belong to the molecule of their own block, whether it stands above or below them. Non-standard residues stand in square brackets, D forms with d. No end group written: not given here. *: point of attachment. FITC = O=C1OC2(c3ccc(O)cc3Oc3cc(O)ccc32)c2ccc(NC(=S)*)cc21; Hyp = O=C(O)[C@@H]1C[C@@H](O)CN1; Ahx = NCCCCCC(=O)O

How the values were obtained:
Panc-1 cells [1] = assay: Wound healing; format: cell-based; conditions: 10 μM for 24 h, FBS-free DMEM
Procedure: Cells were seeded in 6-well plates. Monolayer cells were scratched after culturing to obtain at least 95% confluence. Cells were washed with PBS and maintained in FBS-free DMEM and then treated with 10 μM PRTC and PRTC-m for 24 h. Migration distance was observed by microscopy and was measured by ImageJ from three individual experiments.

CREPT protein = target: T1, CREPT protein (Homo sapiens, UniProt Q9NQG5); assay: Thermal shift assay (TSA); format: binding; conditions: GST-tagged CREPT 5.33 μM, SYPRO Orange, 25 to 70 °C at 1 °C/min
T1 construct: made in house
T1 sequence (Q9NQG5 1-326): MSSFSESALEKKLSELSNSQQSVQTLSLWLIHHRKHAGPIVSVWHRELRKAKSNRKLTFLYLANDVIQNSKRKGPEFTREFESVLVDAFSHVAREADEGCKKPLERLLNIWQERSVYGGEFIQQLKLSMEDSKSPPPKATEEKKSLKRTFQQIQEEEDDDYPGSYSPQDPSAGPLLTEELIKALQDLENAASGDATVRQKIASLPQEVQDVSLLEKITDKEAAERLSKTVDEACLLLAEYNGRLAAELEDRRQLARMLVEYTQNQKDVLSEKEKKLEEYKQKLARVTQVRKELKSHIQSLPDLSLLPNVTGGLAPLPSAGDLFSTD
Procedure: Purified CREPT proteins were appropriately diluted in a buffer containing 50 mM Tris-HCl, pH 8.0, 150 mM NaCl. The final concentration of CREPT protein was 5.33 μM. SYPRO Orange dye was diluted into 10 μM. The PCR plates were sealed, shaken, and centrifuged after proteins and peptides were added. Thermal scanning (25 to 70 °C at 1 °C/min) was performed using a real-time PCR instrument (Bio-Rad). Melting curves were generated by Prism 7.0 based on the raw data.

[2] = Circular dichroism (CD) spectroscopy; format: physicochemical; conditions: 0.1 mg/mL in deionized water, room temperature
Procedure: All peptides were dissolved in the deionized water at a final concentration of 0.1 mg/mL. The CD spectra were measured by using a 1 nm bandwidth with a 1 nm step resolution from 190 to 260 nm at room temperature (Jasco spectropolarimeter, Japan). Final spectra were obtained from the average of three parallel scans after subtracting a spectrum of deionized water recorded under the same conditions. Each sample was scanned thrice and the averaged spectrum was smoothed. The helicity were calculated by CDNN 2.1 [59], [60].

[3] = target: T2, ubiquitinated CREPT in Panc-1 cells (Homo sapiens, UniProt Q9NQG5); assay: Endogenous IP of CREPT with ubiquitin (Co-IP); format: cell-based; conditions: 10 μM peptide for 24 h, IP: CREPT, IB: anti-ubiquitin
T2 construct: endogenous protein level of CREPT in Panc-1, AsPc-1 and MIA-PaCa-2 cells; endogenous in cells; host or cells: Panc-1, AsPc-1, MIA PaCa-2
T2 sequence (Q9NQG5 1-326): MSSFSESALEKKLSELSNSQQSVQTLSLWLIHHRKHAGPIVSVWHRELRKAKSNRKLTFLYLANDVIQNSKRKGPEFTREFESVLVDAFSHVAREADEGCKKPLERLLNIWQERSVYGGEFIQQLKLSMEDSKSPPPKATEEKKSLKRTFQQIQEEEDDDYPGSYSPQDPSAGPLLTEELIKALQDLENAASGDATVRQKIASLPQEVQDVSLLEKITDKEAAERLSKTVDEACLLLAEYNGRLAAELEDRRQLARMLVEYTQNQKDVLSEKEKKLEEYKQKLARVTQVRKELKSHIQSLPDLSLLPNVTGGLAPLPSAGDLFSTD
Procedure: (§1) For exogenous immunoprecipitation assays, HEK293T cells were plated in 60 mm dishes and then transfected with the indicated plasmids. After 24 h, cells were harvested using RIPA buffer (50 mM Tris-HCl pH 8.0, 2 mM EDTA pH 8.0, 150 mM NaCl, 1% NP-40, 0.5% sodium deoxycholate, 0.1% SDS) with mixed protease inhibitors. Cell lysates were incubated with 2 μg of the indicated antibodies and 30 μL of protein A/G-Sepharose beads at 4 °C overnight. Beads were eluted five times with lysis buffer (50 mM Tris-HCl pH 7.6, 1 mM EDTA pH 8.0, 165 mM NaCl, 0.5% NP-40), and thereafter, a western blot assay was performed to analyze the association by using the indicated antibodies. Western blot was performed as previously reported. Anti-β-actin and anti-Flag antibodies were purchased from Sigma. Anti-Myc antibody was purchased from Santa Cruz Biotechnology. Antibody against CREPT was produced in the laboratory.
In addition, a Co-IP experiment was performed in Panc-1 cells treated with 10 μM PRTC, PRTC-m or PRTC-v for 24 h. […] In the absence of MG132, the level of ubiquitinated CREPT was further increased by PRTC (Figure 6C, compare lane 1 and lane 2).
Figure 6 The degradation of CREPT by PRTC is dependent on its VHL ligand. (A) Immunoblot of CREPT following 24 h incubation with different dosages of PRTC or PRTC-v in Panc-1 cells. (B) Immunoblot of CREPT exposed to 10 μM PRTC or PRTC-v for different time points in Panc-1 cells. (C) Endogenous IP experiment of CREPT with ubiquitin treated with 10 μM PTRC, PTRC-m or PTRC-v in Panc-1 cells. IP: CREPT, IB: Anti-ubiquitin.

Panc-1 cells [4] = assay: Cell viability assay (CCK-8); format: cell-based; conditions: 10 μM, CCK-8, OD450, three individual experiments
Procedure: Cells were seeded into 96-well plates (1000 cells per well) and cultured for the indicated times. Cell viability was evaluated using a CCK-8 kit (Solarbio, Beijing, China). The value of OD450 was calculated by spectrophotometer and presented as the mean ± standard deviation (SD) from three individual experiments.

[5] = target: T3, purified GST-CREPT protein (Homo sapiens, UniProt Q9NQG5); assay: Microscale thermophoresis (MST); format: binding; conditions: FITC-labeled peptide 100 nM, gradient dilutions of purified GST-CREPT
T3 construct: made in house
T3 sequence (Q9NQG5 1-326): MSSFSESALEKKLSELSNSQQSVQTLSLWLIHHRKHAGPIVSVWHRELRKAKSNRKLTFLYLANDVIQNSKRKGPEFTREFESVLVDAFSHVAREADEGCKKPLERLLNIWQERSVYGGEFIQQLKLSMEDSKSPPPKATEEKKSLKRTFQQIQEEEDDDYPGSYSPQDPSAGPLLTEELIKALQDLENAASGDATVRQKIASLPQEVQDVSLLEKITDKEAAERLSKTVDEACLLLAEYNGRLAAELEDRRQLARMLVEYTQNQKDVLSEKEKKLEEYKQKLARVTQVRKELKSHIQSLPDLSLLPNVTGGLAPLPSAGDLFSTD
Procedure: FITC-labeled PRTC and PRTC-m were regarded as ligands. After a pretest, 100 nM of both PRTC and PRTC-m generated the most appropriate value of fluorescence. Gradient dilutions of purified CREPT proteins were regarded as the target. The Kd value was measured by Microscale Thermophoresis NT.115 and was analyzed by MO.AffinityAnalysis (Nano Temper, German).

[6] = target: T4, endogenous CREPT protein in Panc-1 cells (Homo sapiens, UniProt Q9NQG5); assay: Western blot of endogenous CREPT (degradation); format: cell-based; conditions: 10 μM or 20 μM peptide
T4 construct: endogenous protein level of CREPT in Panc-1, AsPc-1 and MIA-PaCa-2 cells; endogenous in cells; host or cells: Panc-1, AsPc-1, MIA PaCa-2
T4 sequence (Q9NQG5 1-326): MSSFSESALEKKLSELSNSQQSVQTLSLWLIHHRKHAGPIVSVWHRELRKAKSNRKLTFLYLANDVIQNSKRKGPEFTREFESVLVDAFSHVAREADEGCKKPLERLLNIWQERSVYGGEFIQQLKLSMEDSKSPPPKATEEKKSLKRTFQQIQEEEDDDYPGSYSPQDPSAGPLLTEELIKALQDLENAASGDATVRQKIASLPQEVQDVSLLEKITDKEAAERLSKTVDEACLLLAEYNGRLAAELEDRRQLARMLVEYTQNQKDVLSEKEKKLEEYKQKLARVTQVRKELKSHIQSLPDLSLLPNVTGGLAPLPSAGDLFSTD
Procedure: as §1
To address whether PRTC could induce CREPT degradation, we examined the endogenous protein level of CREPT in Panc-1, AsPc-1 and MIA-PaCa-2 cells in the presence of different dosages of PRTC. […] Consistently, treatment with PRTC led to decreases in CREPT protein at different times (Figure 5B, S3A). […] To further visualize the degradation process, we stained the endogenous CREPT protein with an antibody against CREPT in the cells treated with FITC-labeled PRTC.
Figure 5 PRTC induces the ubiquitination and proteasome- dependent degradation of the endogenous CREPT protein. (A) Immunoblot of CREPT following 24 h incubation with different dosages of PRTC or PRTC-m in Panc-1 cells. (B) Immunoblot of CREPT exposed to 10 μM PRTC or PRTC-m for different times in Panc-1 cells. (C) Western blot analysis of CREPT following 24 h incubation with 10 μM PTRC in Panc-1 cells. MG132 is an inhibitor of proteasome activity. (D) Immunofluorescence visualization of Panc-1 cells after treatment with PRTC for 24 h. Cells were stained with anti-CREPT antibody. Scale bars, 20 μm.

[7] = target: T5, purified GST-CREPT protein (microscale thermophoresis and thermal shift assay) (UniProt Q9NQG5 1-326); assay: MST; 100 nM FITC-labeled peptide kept constant, gradient dilutions of purified GST-CREPT; Microscale Thermophoresis NT.115, MO.AffinityAnalysis; conditions: both partners purified
T5 construct: CREPT (also named RPRD1B); it may be the same as m2 or m3; also called GST-tagged CREPT; purified CREPT proteins; source: purified
T5 sequence (looked up): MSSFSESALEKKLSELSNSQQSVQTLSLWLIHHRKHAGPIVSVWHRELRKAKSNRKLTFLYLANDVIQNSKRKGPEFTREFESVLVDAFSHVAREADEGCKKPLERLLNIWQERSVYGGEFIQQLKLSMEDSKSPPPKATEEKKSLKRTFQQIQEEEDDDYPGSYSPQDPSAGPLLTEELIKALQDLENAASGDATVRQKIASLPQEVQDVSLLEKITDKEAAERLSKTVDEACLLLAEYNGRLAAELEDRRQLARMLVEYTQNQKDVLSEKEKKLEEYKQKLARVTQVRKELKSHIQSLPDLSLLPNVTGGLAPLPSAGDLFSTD

[8] = target: T5, purified GST-CREPT protein (microscale …); assay: thermal shift assay; 5.33 μM purified CREPT protein in 50 mM Tris-HCl pH 8.0, 150 mM NaCl, SYPRO Orange, peptide or deionized H2O added; 25 to 70 °C at 1 °C/min; conditions: both partners purified

- effect on thermal stability of CREPT (CREPT protein): failed to alter
- secondary structure by CD spectrum [2]: disordered structure
- Helicity ([2]; 190 to 260 nm, average of three scans, calculated by CDNN 2.1): 7.9%
- ubiquitinated CREPT proteins [3]: unable to mediate the accumulation
- association with CREPT (MST) [5]: failed to associate
- CREPT protein level at different times [6]: no effect
Molecule: IYP (OH) AL-AHX-KDVPSEKEKKPEEYKQKPARV-RRRRK [PRTC-m, three leucine residues on PRTC were replaced with proline residues]
- cell movement (wound healing) (Panc-1 cells [1]): not
- cell proliferation (Panc-1 cells [4]): failed

- Kd [7]: 340 nM
B1: FITC-PRTC (peptide)
peptide: {FITC-Ahx}-IY[Hyp]AL[Ahx]KDVLSEKEKKLEEYKQKLARVRRRRK
notes: VHL ligand IYP(OH)AL; the P is trans-4-hydroxy-L-proline; followed by the AHX linker; CREPT ligand (CL): leucine-zipper-like motif of CREPT (RPRD1B), lysine 266 to valine 286; transmembrane transport pentapeptide; Peptide-based PROTAC: VHL ligand, AHX linker, CREPT ligand, RRRRK; also called FITC-labeled PRTC; source: synthetic peptide (ChinaPeptides Co., Ltd.), purified by HPLC

B2: PRTC (peptide)
peptide: IY[Hyp]AL[Ahx]KDVLSEKEKKLEEYKQKLARVRRRRK
notes: VHL ligand IYP(OH)AL; the P is trans-4-hydroxy-L-proline; followed by the AHX linker; CREPT ligand (CL): leucine-zipper-like motif of CREPT (RPRD1B), lysine 266 to valine 286; transmembrane transport pentapeptide; The thermal shift assay names the peptide only as PRTC; also called cell-permeable peptide-based PROTAC against CREPT; source: synthetic peptide (ChinaPeptides Co., Ltd.), purified by …
- dTm (thermal shift) [8]: 6 °C
